Experimental data reported in patent publication US20200271640A1, “METHOD FOR SCREENING COMPOUNDS THAT MODULATE THE ACTIVITY OF THE ELECTRON TRANSPORT CHAIN” (IMG Pharma Biotech, S.L., priority 2017, published 2020).
Entries after “also recorded” stand apart in the source; their conditions may differ.

Tests used:
[1] = tested on: mitochondrial supercomplexes; assay: DAB oxidation activity assay of complexes and supercomplexes of the mitochondrial ETC in rat heart MMP; settings: for effect on NADH evoked inhibition (inhibition period) of DAB oxidation, supercomplex activity: in presence of NADH; for inhibition of DAB oxidation by the substrate itself: substrate alone; for effect on NADPH consumption rate / NADPH-inhibition period of DAB oxidation: in presence of NADPH; for effect on succinate evoked decrease in DAB oxidation: in presence of succinate
Experimental: The crude homogenate was subjected to a 1000×g for 8 min, and the resultant supernatant was centrifuged again at 18,000×g for 15 min (4° C., Microfuge® 22R centrifuge, Beckman Coulter). The pellet was washed in 20 volumes of homogenized buffer using an Ultra-Turrax® (T10 basic, IKA) and re-centrifuged under the same conditions. The homogenate aliquots were stored at −80 ° C. until they were used. Protein concentration was measured by the Bradford method and adjusted to the required concentrations.
(§5) The assay buffer consisted of a phosphate buffer (pH 7,4), EDTA, Cl2Mg, BSA and 3,3′-diaminobenzidine (DAB) in the absence or in the presence of CI and CII substrates and the tested drugs. The reaction was started by adding 0.1 mg/ml membranes homogenates to the assay buffer (25° C.) or putting into contact cell membrane microarrays with assay buffer. DAB oxidation was measured every 5-10 min spectrophotometrically at 460 and 595 nm in a Multiskan microtiter plate reader (Thermo Scientific) for 960 min in the case of homogenates
Results were expressed as means of independent data points±S.E.M. In sake of clarity, biochemical data (Complex I and II activities, superoxide production and supercomplex activity) are presented as percentage of controls with or without the application of ETC inhibitors. Data were analyzed using paired Student's t-test, one-way (followed by Tukey's post hoc test) or two-way ANOVA (followed by Bonferroni's post hoc test), as appropriate.

[2] = tested on: NADH-ubiquinone oxidoreductase (complex I); assay: NADH-ubiquinone oxidoreductase (complex I) activity assay, DCIP reduction; assay type: biochemical, rat; settings: NADH (0.7 mM)
Experimental: (§1) CI and CII assays were performed based on a previous protocol with some modifications. The reaction mixture consisted of potassium phosphate buffer (0.8M K2HPO4, 0.2M KH2PO4, pH 7.4), 3 mg/ml BSA, 160 μM 2,6-dichloroindophenol (DCIP) (Sigma) together with the CI or CII substrates. The reaction was started by the addition of 0.1 mg/ml membranes homogenates (25° C.) in the absence or in the presence of decylubiquinone and ETC inhibitors. […] Control experiments were performed to exclude any interference or substrate interaction.

[3] = tested on: succinate dehydrogenase (complex II); assay: succinate dehydrogenase (complex II) activity assay, DCIP reduction; assay type: biochemical, rat; settings: succinate (1 mM)
Experimental: as §1

superoxide production = assay: Superoxide production, NBT reduction in membrane homogenates; assay type: biochemical, rat; settings: NADH (0.7 mM)
Experimental: The assay medium for measurement of superoxide production consisted of a 50 mM phosphate buffer (Na2HPO4, NaH2PO4, pH 7,4), 0.5 mg/ml nitro blue tetrazolium (NBT) as a redox dye and CI or CII substrates. The reaction was started by the addition of 0.1 mg/ml membranes homogenates for 360 min (25° C.) with or without decylubiquinone and ETC inhibitors.

[4] = tested on: mitochondrial supercomplexes; assay: DAB oxidation supercomplex assay in MMP isolated from heart of cynomolgus monkey; assay type: biochemical; settings: MMP from hearts of cynomolgus monkey
Experimental: as §5

electron transport chain = settings: human tissue cell membrane microarrays
Experimental: (§2) Membrane homogenates isolated from human liver were suspended in buffer and they were printed (4 nL per spot, 2-5 replicates per sample) at increasing concentrations together with internal patrons onto glass slides using a non-contact microarrayer (Nano_plotter NP 2.1). The same process was used for developing cell membrane microarrays of different human tissues or rat tissues. Microarrays were stored at −20° C. until they were used. ETC activity assay using DAB and NBT as redox dyes
(§3) The assay buffer consisted of a 10 mM phosphate buffer (pH 7.4), 0.05% 3,3′-diaminobenzidine (DAB) or NBT (Nitro blue tetrazolium), 0.2 mM EGTA, 3 mg/ml BSA with or without mitochondrial ETC substrates and electron carriers, such as NADH and succinate. The reaction was started by adding 100 μl of the assay buffer to cell membrane microarrays using an incubation chamber. DAB oxidation or NBT reduction were measured every 20 min using a colorimetric high resolution scanner (Epson Perfection V750 Pro) for 24 hours.
(§4) Microphotographs were captured with the same light parameters and the collection of images was quantified with the MAPIX software (version 7.3.1). The optical densities obtained at different times were analyzed and the slope determined in the linear range was used to calculate the enzymatic rate.

[5] = tested on: reactive oxygen species (ROS) such as superoxide; settings: human tissue cell membrane microarrays
Experimental: as §2, §3, §4

## N#CC(C#N)=NNc1cccc(Cl)c1 [CCCP]
[1]; rat heart MMP
  effect on NADH evoked inhibition (inhibition period) of DAB oxidation, supercomplex activity: induces changes in both

## O=[N+]([O-])c1ccc(O)c([N+](=O)[O-])c1 [DNP]
[1]; rat heart MMP
  effect on NADH evoked inhibition (inhibition period) of DAB oxidation, supercomplex activity: does not alter DAB oxidation

## NC(=O)C1=CN([C@@H]2O[C@H](COP(=O)(O)OP(=O)(O)OC[C@H]3O[C@@H](n4cnc5c(N)ncnc54)[C@H](O)[C@@H]3O)[C@@H](O)[C@H]2O)C=CC1 [NADH]
[1]; rat heart MMP
  inhibition of DAB oxidation by the substrate itself: full blockage

## NC(=O)C1=CN([C@@H]2O[C@H](COP(=O)(O)OP(=O)(O)OC[C@H]3O[C@@H](n4cnc5c(N)ncnc54)[C@H](OP(=O)(O)O)[C@@H]3O)[C@@H](O)[C@H]2O)C=CC1 [NADPH]
[1]; rat heart MMP
  inhibition of DAB oxidation by the substrate itself: inhibits DAB oxidation

## NC(=O)c1ccc[n+]([C@@H]2O[C@H](COP(=O)([O-])OP(=O)(O)OC[C@H]3O[C@@H](n4cnc5c(N)ncnc54)[C@H](O)[C@@H]3O)[C@@H](O)[C@H]2O)c1 [NAD]
[1]; rat heart MMP
  effect on NADPH consumption rate / NADPH-inhibition period of DAB oxidation: reduces it

## CCCCCCCCCCCCOS(=O)(=O)[O-].[Na+] [SDS]
[1]; rat heart MMP
  effect on NADH evoked inhibition (inhibition period) of DAB oxidation, supercomplex activity: effects also observed

## [Zn+2] [Zinc]
[1]; rat heart MMP
  effect on NADH evoked inhibition (inhibition period) of DAB oxidation, supercomplex activity: enhances the inhibition period evoked by NADH

## CCCCCCCCCCC1=C(C)C(=O)C(OC)=C(OC)C1=O [dUQ, decylubiquinone]
[2]; myxothiazol, dUQ (50 μM)
  effect of dUQ on the inhibitor's block of DCIP reduction, NADH: does not produce the same effect with myxothiazol
[3]; antimycin A, dUQ (50 μM)
  effect of dUQ on the inhibitor's block of DCIP reduction, succinate: blocks the effect of antimycin A
Superoxide production
  superoxide production using NADH: increased in the presence of dUQ
[4]; NADH (0.7 mM)
  effect on NADH-dependent inhibition period of DAB oxidation: significantly reduces the NADH-dependent inhibition period of DAB oxidation
[4]; NADH with rotenone
  partial blockage of the rotenone effect by dUQ: not detected in monkey
[1]; dUQ at 10 μM, with NADH and rotenone, antimycin A or myxothiazol
  effect on inhibitor mediated enhancement of NADH inhibition of DAB oxidation: reducing the inhibitor mediated effects; also recorded: partial blockage of the rotenone effect
[1]; dUQ at 50 μM, with NADH and rotenone or antimycin A
  effect on inhibitor mediated enhancement of NADH inhibition of DAB oxidation: potentiating those evoked by rotenone and antimycin A
[1]; rat heart MMP, higher concentrations of succinate (5 mM in FIG. 1e)
  effect on DAB oxidation blockage at higher concentrations of succinate: potentiates the DAB oxidation blockage
[1]; rat heart MMP
  effect on NADH evoked inhibition (inhibition period) of DAB oxidation, supercomplex activity: slight reduction of the NADH evoked inhibition of DAB oxidation
  effect on NADPH consumption rate / NADPH-inhibition period of DAB oxidation: NADPH-inhibition period is enhanced

## C[C@@H]1CC[C@@]2(OC1)O[C@H]1[C@@H](O)[C@H]3[C@@H]4CC[C@H]5C[C@@H](O[C@@H]6O[C@H](CO)[C@H](O[C@@H]7O[C@H](CO)[C@@H](O)[C@H](O[C@@H]8OC[C@@H](O)[C@H](O)[C@H]8O)[C@H]7O[C@@H]7O[C@H](CO)[C@H](O)[C@H](O[C@@H]8O[C@H](CO)[C@@H](O)[C@H](O)[C@H]8O)[C@H]7O)[C@H](O)[C@H]6O)[C@H](O)C[C@]5(C)[C@H]4CC[C@]3(C)[C@H]1[C@@H]2C [digitonin]
[1]; rat heart MMP
  effect on NADH evoked inhibition (inhibition period) of DAB oxidation, supercomplex activity: enhancement on the NADH inhibition period

## CO/C(=C/C(N)=O)[C@H](C)[C@H](/C=C/c1csc(-c2csc([C@@H](C)/C=C/C=C/C(C)C)n2)n1)OC [myxothiazol]
[2]
  DCIP reduction in the presence of NADH: efficiently blocked DCIP reduction
[3]
  DCIP reduction with succinate as substrate: not myxothiazol did it
[1]; rat heart MMP
  effect on succinate evoked decrease in DAB oxidation: promotes the blockage of the succinate-derived electron input

## C=C(C)[C@H]1Cc2c(ccc3c2O[C@@H]2COc4cc(OC)c(OC)cc4[C@@H]2C3=O)O1 [rotenone]
Superoxide production
  superoxide production using NADH: induces superoxide formation
[1]; rat heart MMP
  effect on NADH evoked inhibition (inhibition period) of DAB oxidation, supercomplex activity: enhances the substrate evoked inhibition of DAB oxidation

## O=C(O)CCC(=O)O [succinate]
Electron transport chain
  ETC activity quantified using DAB as redox dye: tissue specifically modulated
[5]
  formation of reactive oxygen species (formazan production): produces the formation of reactive oxygen species (ROS) such as superoxide
[1]; rat heart MMP
  inhibition of DAB oxidation by the substrate itself: partial inhibition

## antimycin A
[2]
  DCIP reduction in the presence of NADH: not antimycin A efficiently blocked DCIP reduction
[3]
  DCIP reduction with succinate as substrate: did it
Superoxide production
  superoxide production using NADH: biphasic effect in which a maximum was observed in low micromolar range
[1]; rat heart MMP
  effect on NADH evoked inhibition (inhibition period) of DAB oxidation, supercomplex activity: enhancement of the NADH-inhibition period
  effect on succinate evoked decrease in DAB oxidation: blocks the electron flux generated by CII to cyt c

## cytochrome c [cyt c]
[1]; rat heart MMP
  effect on NADH evoked inhibition (inhibition period) of DAB oxidation, supercomplex activity: cannot bypass the full inhibition caused by NADH on DAB oxidation; also recorded: decreases the time period in which a specific NADH concentration induces the DAB oxidation blockage
  effect on NADPH consumption rate / NADPH-inhibition period of DAB oxidation: increases the NADPH consumption rate
  effect on succinate evoked decrease in DAB oxidation: reduces the effect promoted by CI and CII substrates on DAB oxidation
[1]; soluble cyt c, with NADH and ETC inhibitors
  NADH consumption rate in the presence of ETC inhibitors: accelerates the NADH consumption rate

## sodium deoxycholate
[1]; rat heart MMP
  effect on NADH evoked inhibition (inhibition period) of DAB oxidation, supercomplex activity: effects also observed
